Experimental data taken from patent publication US6908919B2, “Substituted polycyclic aryl and heteroaryl pyrazinones useful for selective inhibition of the coagulation cascade” (Pharmacia Corporation, priority 1999, dated 2005).

How the values were obtained:
Human factor Xa = Human factor Xa (Homo sapiens, UniProt P00742); experiment: Xa Assay; type: biochemical; parameters: purchased Enzyme Research Laboratories, South Bend Ind; settings: for % Inhibition Factor Xa (30 µM): at 30 µM inhibitor
[1] = biological target: T1, recombinant soluble tissue factor and recombinant human factor VIIa (TF-VIIa) (Homo sapiens, UniProt P08709); experiment: TF-VIIa Assay; type: biochemical; settings: for IC50: read-out: IC50 TF-VIIa; for inhibition at 30 µM: 1 h, at 30 µM inhibitor
T1 construct: conversion of coagulation factor VII to VIIa by Xa; purchased American Diagnostica, Greenwich Conn; host or cells: VIIa purchased; soluble TF made in house in E. coli
T1 sequence (P08709 61-212 limits assumed): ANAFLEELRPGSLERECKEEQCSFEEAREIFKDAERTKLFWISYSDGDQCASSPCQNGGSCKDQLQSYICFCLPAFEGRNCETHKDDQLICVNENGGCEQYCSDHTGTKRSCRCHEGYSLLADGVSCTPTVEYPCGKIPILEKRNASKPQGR
T1 sequence (P08709 213-466 limits assumed): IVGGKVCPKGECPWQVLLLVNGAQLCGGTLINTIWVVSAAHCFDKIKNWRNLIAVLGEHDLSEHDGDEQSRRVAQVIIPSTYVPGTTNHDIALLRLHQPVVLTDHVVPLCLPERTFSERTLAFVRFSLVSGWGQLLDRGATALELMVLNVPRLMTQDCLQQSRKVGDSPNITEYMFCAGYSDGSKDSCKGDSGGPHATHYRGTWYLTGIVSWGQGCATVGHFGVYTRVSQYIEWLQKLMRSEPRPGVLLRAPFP
T1 sequence (P13726 33-251 partner limits assumed): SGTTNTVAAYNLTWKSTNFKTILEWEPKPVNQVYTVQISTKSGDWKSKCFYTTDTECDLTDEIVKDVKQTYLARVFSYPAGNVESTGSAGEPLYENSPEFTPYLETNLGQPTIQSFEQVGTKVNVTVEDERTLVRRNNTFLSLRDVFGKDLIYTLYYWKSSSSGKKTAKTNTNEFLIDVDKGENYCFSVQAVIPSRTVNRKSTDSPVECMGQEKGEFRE

Human thrombin [2] = biological target: T2, Human thrombin (Homo sapiens, UniProt P00734)
Human thrombin [3] = biological target: T2, Human thrombin; experiment: biochemical

Sequence of Human factor Xa (P00742 41-179 limits assumed): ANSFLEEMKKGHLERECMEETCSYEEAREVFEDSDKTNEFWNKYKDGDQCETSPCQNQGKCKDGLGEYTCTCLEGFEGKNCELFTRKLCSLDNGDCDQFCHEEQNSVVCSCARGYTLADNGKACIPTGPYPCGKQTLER
Sequence of Human factor Xa (P00742 235-488 limits assumed): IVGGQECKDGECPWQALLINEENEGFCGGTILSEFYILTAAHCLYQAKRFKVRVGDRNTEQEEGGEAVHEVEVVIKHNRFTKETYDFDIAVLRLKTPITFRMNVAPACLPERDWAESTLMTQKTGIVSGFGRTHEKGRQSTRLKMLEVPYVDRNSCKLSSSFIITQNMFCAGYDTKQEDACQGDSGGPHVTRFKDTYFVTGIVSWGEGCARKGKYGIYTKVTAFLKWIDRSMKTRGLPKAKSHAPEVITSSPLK

Row | % Inhibition Factor Xa (30 µM) (Human factor Xa) [%] | IC50 [1] [µM] | % Inhibition Thrombin II (30 µM) (Human thrombin [2]) [%] | IC50 (Human factor Xa) [µM] | inhibition at 30 µM [1] [%] | IC50 (Human thrombin [3]) [µM] | inhibition at 100 µM (Human factor Xa; at 100 μM inhibitor) [%] | inhibition at 100 µM (Human thrombin [3]; read-out: % Inhibition Thrombin II at 100 μM) [%] | Compound
1 | 15 | 0.05 | 20 |  |  |  |  |  | CC(C)Nc1nc(Cl)c(-c2cc(N)ccc2SCC(=O)O)n(CC(=O)NCc2ccc(C(=N)N)cc2)c1=O [Example 110]
2 | 12 | 1.2 | 27 |  |  |  |  |  | N=C(N)c1ccc(CNC(=O)Cn2c(-c3ccccc3N)cnc(NC3CCC3)c2=O)cc1 [Example 116]
3 | 18 | 0.033 | 21 |  |  |  |  |  | COC(=O)c1cc(N)cc(-c2cnc(NC3CCC3)c(=O)n2CC(=O)NCc2ccc(C(=N)N)cc2)c1 [Example 117]
4 |  | 0.052 | 3 | 52.3 |  |  |  |  | N=C(N)c1ccc(CNC(=O)Cn2c(-c3cc(N)cc(C(=O)O)c3)cnc(NC3CCC3)c2=O)cc1 [Example 118]
5 | 26 | 0.01 | 45 |  |  |  |  |  | N=C(N)c1ccc(CNC(=O)Cn2c(-c3cc(N)cc(N)c3)cnc(NC3CCC3)c2=O)cc1 [Example 119]
6 | 27 | 0.031 | 23 |  |  |  |  |  | COC(=O)c1cc(N)cc(-c2c(Cl)nc(NC3CCC3)c(=O)n2CC(=O)NCc2ccc(C(=N)N)cc2)c1 [Example 127]
7 |  |  |  | > 30 | 5 | > 30 |  |  | Nc1cccc(-c2c(Cl)nc(NC3CCC3)c(=O)n2CC(=O)NCc2ccc3ccnc(N)c3c2)c1 [Example 147]
8 |  | 7.03 |  |  |  |  | 8 | 4 | N/N=C(/N)c1ccc(CNC(=O)Cn2c(-c3cccc(N)c3)c(Cl)nc(NC3CCC3)c2=O)cc1 [Example 148]
9 | 4 | 0.36 |  |  |  | 25 |  |  | CC(C)Nc1nc(Cl)c(-c2cccc(N)c2)n(CC(=O)NCC2CCC(C(=N)N)C=N2)c1=O (stereo not drawn) [Example 150]
10 | 17 | 0.23 | 29 |  |  |  |  |  | N=C(NC(=O)OCc1ccccc1)c1ccc(CNC(=O)Cn2c(-c3cccc(N)c3)c(Cl)nc(NC3CCC3)c2=O)cc1 [Example 151]
11 |  |  |  | > 30 | 28 | > 30 |  |  | Nc1cccc(-c2c(Cl)nc(NC3CCC3)c(=O)n2CC(=O)NCc2ccc(-c3noc(=O)[nH]3)cc2)c1 [Example 152]
12 | 8 |  |  |  | 12 | > 30 |  |  | Nc1cccc(-c2c(Cl)nc(NC3CCC3)c(=O)n2CC(=O)NCc2ccc(-c3n[nH]c(=O)[nH]3)cc2)c1 [Example 153]
13 | 11 |  | 2 |  | 1 |  |  |  | CC(C)Nc1nc(Cl)c(-c2cccc(N)c2)n(CC(=O)Nc2ccc(S(=O)(=O)NC(=N)N)cc2)c1=O [Example 155]
14 | 7 |  | 5 |  | 27 |  |  |  | CC(C)Nc1nc(Cl)c(-c2cccc(N)c2)n(CC(=O)NCc2ccc(C(N)=S)cc2)c1=O [Example 156]
15 |  | 0.7 |  | 64 |  | 35 |  |  | CC(C)Nc1nc(Cl)c(-c2cccc(N)c2)n(CC(=O)NNc2ccc(C(=N)N)cc2)c1=O [Example 157]
16 |  |  | 6 | > 30 | 10 |  |  |  | Nc1ccc(CNC(=O)Cn2c(-c3cccc(N)c3)c(Cl)nc(NC3CCC3)c2=O)cc1 [Example 158]
17 | 7 | 18 | 9 |  |  |  |  |  | N=C(NCc1ccccc1)c1ccc(CNC(=O)Cn2c(-c3cccc(N)c3)c(Cl)nc(NC3CCC3)c2=O)cc1 [Example 160]
18 |  | 88.4 | 7 |  |  |  |  |  | CC(C)NC(=N)c1ccc(CNC(=O)Cn2c(-c3cccc(N)c3)c(Cl)nc(NC3CCC3)c2=O)cc1 [Example 161]
19 |  |  | 2 |  | 35 |  |  |  | C/N=C(/NC)c1ccc(CNC(=O)Cn2c(-c3cccc(N)c3)c(Cl)nc(NC3CCC3)c2=O)cc1 [Example 162]
20 |  | 40 | 4 |  |  |  |  |  | COCCNC(=N)c1ccc(CNC(=O)Cn2c(-c3cccc(N)c3)c(Cl)nc(NC3CCC3)c2=O)cc1 [Example 163]
21 | 2 |  | 5 |  | 24 |  |  |  | COCC/N=C(\NCCOC)c1ccc(CNC(=O)Cn2c(-c3cccc(N)c3)c(Cl)nc(NC3CCC3)c2=O)cc1 [Example 164]
22 | 4 | 63 | 5 |  |  |  |  |  | CN(C)CC/N=C(\NCCN(C)C)c1ccc(CNC(=O)Cn2c(-c3cccc(N)c3)c(Cl)nc(NC3CCC3)c2=O)cc1 [Example 165]
23 | 2 | 63 | 5 |  |  |  |  |  | CN(C)CCNC(=N)c1ccc(CNC(=O)Cn2c(-c3cccc(N)c3)c(Cl)nc(NC3CCC3)c2=O)cc1 [Example 166]
